In US20240382488A1, “NEK7 INHIBITORS” (Halia Therapeutics, Inc., priority 2021, published 2024):

Molecular target: T1, full-length recombinant human Nek7 (Homo sapiens, UniProt Q8TDX7)
T1 construct: full-length recombinant human Nek7; GST (N); purchased SignalChem N09-10G; host or cells: Sf9 insect cells (baculovirus)
Assay: NEK7 Enzymatic Assay
Assay type: biochemical
Conditions: radiometric [32P]-ATP kinase assay, casein substrate 20 μM, Nek7 70 nM, 2 hours room temperature
Description: Casein substrate (from bovine milk, hydrolyzed and partially dephosphorylated mixture of α, β and κ caseins, obtained from Sigma Aldrich, catalogue #C4765, diluted in distilled water to a final concentration of 1 mg/mL, assay concentration 20 μM) and full-length recombinant human Nek7 (expressed by baculovirus in Sf9 insect cells using a N-terminal GST tag, obtained from SignalChem, catalogue #N09-10G, 0.1 μg/μL, assay concentration 70 nM) were mixed in assay buffer (20 mM Hepes pH 7.5, 10 mM MgCl2, 1 mM EGTA, 0.02% Brij35, 0.02 mg/ml BSA, 0.1 mM […], 2 mM DTT, 1% DMSO). Compounds of interest (in DMSO, serial 3-fold dilution from 10 μM to 0.5 nM) or control (1% DMSO) were dispensed into the kinase reaction mixture by Acoustic technology (Echo550; nanoliter range). After incubation at room temperature for 20 minutes, the kinase reaction was initiated by addition of [^32P]-ATP (Specific activity 10 μCi/μl) and the mixture was incubated at room temperature for 2 hours. The reaction was then stopped by spotting the reaction mixture on strips of phosphocellulose P81 paper. Following washing, the radioactivity of the P81 paper was measured and kinase activity data were expressed as the percent remaining kinase activity in test samples compared to vehicle (dimethyl sulfoxide) reactions. IC50 values and curve fits were obtained using Prism (GraphPad Software).
Representative compounds were tested for inhibitory activity against NEK7 according to the procedure described above.

T1 sequence (Q8TDX7 whole entry): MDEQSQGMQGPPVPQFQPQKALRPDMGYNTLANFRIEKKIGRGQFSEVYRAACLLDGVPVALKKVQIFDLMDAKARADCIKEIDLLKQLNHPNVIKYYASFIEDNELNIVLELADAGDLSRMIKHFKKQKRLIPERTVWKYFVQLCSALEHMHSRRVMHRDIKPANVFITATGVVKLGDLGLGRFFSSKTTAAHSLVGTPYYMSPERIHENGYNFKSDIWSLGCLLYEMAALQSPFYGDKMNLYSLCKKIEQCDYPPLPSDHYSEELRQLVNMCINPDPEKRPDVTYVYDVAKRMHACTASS

Compound	IC50 [nM]
Nc1ncnc2c1c(-c1ccc3c(c1F)CCN3C(=O)Cc1cc(C(F)(F)F)ccc1F)nn2CCO [Compound I-19, 1-(5-(4-amino-1-(2-hydroxyethyl)-1H-pyr-azolo[3,4-d]pyrimidin-3-yl)-4-fluoroindolin-1-yl)-2-(2-fluoro-5-(tri-fluoromethyl)phenyl)-ethan-1-one]	< 150
COCCn1cc(-c2ccc3c(c2F)CCN3C(=O)Cc2cc(C(F)(F)F)ccc2F)c2c(N)ncnc21 [Compound I-26, 1-(5-(4-amino-7-(2-methoxyethyl)-7H-pyr-rolo[2,3-d]pyrimidin-5-yl)-4-fluoroindolin-1-yl)-2-(2-fluoro-5-(tri-fluoromethyl)phenyl)-ethan-1-one]	< 150
Nc1ncnc2c1c(-c1ccc3c(c1F)CCN3C(=O)Cc1cc(C(F)(F)F)ccc1F)cn2CCC(=O)O [Compound I-34, 3-(4-amino-5-(4-fluoro-1-(2-(2-fluoro-5-(tri-fluoromethyl)phenyl)-acetyl)indolin-5-yl)-7H-pyrrolo[2,3-d]pyrimidin-7-yl)propanoic acid]	< 150
Nc1ncnc2c1c(-c1ccc3c(c1F)CCN3C(=O)Cc1cc(C(F)(F)F)ccc1F)cn2CCO [Compound I-18, 1-(5-(4-amino-7-(2-hydroxyethyl)-7H-pyr-rolo[2,3-d]pyrimidin-5-yl)-4-fluoroindolin-1-yl)-2-(2-fluoro-5-(tri-fluoromethyl)phenyl)-ethan-1-one]	< 150
Nc1ncnc2c1c(-c1ccc3c(c1Cl)CCN3C(=O)Cc1cc(C(F)(F)F)ccc1F)nn2C1CC1 [Compound I-15, 1-(5-(4-amino-1-cyclo-propyl-1H-pyrazolo[3,4-d]pyrimidin-3-yl)-4-chloroindolin-1-yl)-2-(2-fluoro-5-(trifluoro-methyl)phenyl)ethan-1-one]	< 150
CN1CCN(Cc2cc(CC(=O)N3CCc4c3ccc(-c3cn(C5CC5)c5ncnc(N)c35)c4F)cc(C(F)(F)F)c2)CC1 [Compound I-32, 1-(5-(4-amino-7-cyclo-propyl-7H-pyrrolo[2,3-d]pyrimidin-5-yl)-4-fluoroindolin-1-yl)-2-(3-((4-methylpiperazin-1-yl)methyl)-5-(tri-fluoromethyl)phenyl)-ethan-1-one]	> 1500
COCCn1nc(-c2ccc3c(c2F)CCN3C(=O)Cc2cc(C(F)(F)F)ccc2F)c2c(N)ncnc21 [Compound I-24, 1-(5-(4-amino-1-(2-methoxyethyl)-1H-pyrazolo[3,4-d]pyrim-idin-3-yl)-4-fluoroindo-lin-1-yl)-2-(2-fluoro-5-(trifluoromethyl)phen-yl)ethan-1-one]	< 150
CC(C)(O)Cn1cc(-c2ccc3c(c2F)CCN3C(=O)Cc2cc(C(F)(F)F)ccc2F)c2c(N)ncnc21 [Compound I-23, 1-(5-(4-amino-7-(2-hydroxy-2-methylprop-yl)-7H-pyrrolo[2,3-d]-pyrimidin-5-yl)-4-fluoroindolin-1-yl)-2-(2-fluoro-5-(trifluoro-methyl)phenyl)ethan-1-one]	< 150
CC(C)n1nc(-c2ccc3c(c2F)CCN3C(=O)Cc2ccc(F)cc2)c2c(N)ncnc21 [Compound I-3, 1-(5-(4-amino-1-iso-propyl-1H-pyrazolo[3,4-d]pyrimidin-3-yl)-4-fluoroindolin-1-yl)-2-(4-fluorophenyl)ethan-1-one]	> 1500
Nc1ncnc2c1c(-c1ccc3c(c1F)CCN3C(=O)Cc1cc(C(F)(F)F)ccc1F)cn2C1CC(O)C1 (centres unmarked) [Compound I-27, 1-(5-(4-amino-7-(3-hydroxycyclobutyl)-7H-pyrrolo[2,3-d]pyrimidin-5-yl)-4-fluoroindolin-1-yl)-2-(2-fluoro-5-(tri-fluoromethyl)phenyl)-ethan-1-one]	< 150
CN1CC(n2cc(-c3ccc4c(c3F)CCN4C(=O)Cc3cc(C(F)(F)F)ccc3F)c3c(N)ncnc32)C1 [Compound I-33, 1-(5-(4-amino-7-(1-methylazetidin-3-yl)-7H-pyrrolo[2,3-d]pyr-imidin-5-yl)-4-fluoroin-dolin-1-yl)-2-(2-fluoro-5-(trifluoromethyl)phen-yl)ethan-1-one]	< 150
CC(C)n1cc(-c2ccc3c(c2F)CCN3C(=O)Cc2ccc(F)c(C(F)(F)F)c2)c2c(N)ncnc21 [Compound I-13, 1-(5-(4-amino-7-isoprop-yl-7H-pyrrolo[2,3-d]pyr-imidin-5-yl)-4-fluoroind-olin-1-yl)-2-(4-fluoro-3-(trifluoromethyl)phenyl)-ethan-1-one]	151 to 300
CN1CCCC(n2cc(-c3ccc4c(c3F)CCN4C(=O)Cc3cc(C(F)(F)F)ccc3F)c3c(N)ncnc32)C1 (centres unmarked) [Compound I-31, 1-(5-(4-amino-7-(1-methylpiperidin-3-yl)-7H-pyrrolo[2,3-d]pyr-imidin-5-yl)-4-fluoroin-dolin-1-yl)-2-(2-fluoro-5-(trifluoromethyl)phen-yl)ethan-1-one]	< 150

Other lines, results leading:

IC50 [nM]	Compound
< 150	Nc1nccc2c1c(-c1ccc3c(c1F)CCN3C(=O)Cc1cc(C(F)(F)F)ccc1F)nn2C1CC1 [Compound I-29, 1-(5-(4-amino-1-cyclo-propyl-1H-pyrazolo[4,3-c]pyridin-3-yl)-4-fluoro-indolin-1-yl)-2-(2-fluoro-5-(trifluoromethyl)phen-yl)ethan-1-one]
> 1500	CN1CCN(Cc2ccc(C(F)(F)F)cc2CC(=O)N2CCc3c2ccc(-c2cn(C4CC4)c4ncnc(N)c24)c3F)CC1 [Compound I-30, 1-(5-(4-amino-7-cyclo-propyl-7H-pyrrolo[2,3-d]pyrimidin-5-yl)-4-fluoroindolin-1-yl)-2-(2-((4-methylpiperazin-1-yl)methyl)-5-(trifluoro-methyl)phenyl)ethan-1-one]
< 150	Cc1cccc(CC(=O)N2CCc3c2ccc(-c2cn(C4CC4)c4ncnc(N)c24)c3F)n1 [Compound I-21, 1-(5-(4-amino-7-cyclo-propyl-7H-pyrrolo[2,3-d]pyrimidin-5-yl)-4-fluoroindolin-1-yl)-2-(6-methylpyridin-2-yl)-ethan-1-one]
< 150	Nc1ncnc2[nH]cc(-c3ccc4c(c3F)CCN4C(=O)Cc3cc(C(F)(F)F)ccc3F)c12 [Compound I-22, 1-(5-(4-amino-7H-pyr-rolo[2,3-d]pyrimidin-5-yl)-4-fluoroindolin-1-yl)-2-(2-fluoro-5-(tri-fluoromethyl)phenyl)-ethan-1-one]
301 to 500	CN1CCN(Cc2ccc(CC(=O)N3CCc4c3ccc(-c3cn(C5CC5)c5ncnc(N)c35)c4F)cc2C(F)(F)F)CC1 [Compound I-25, 1-(5-(4-amino-7-cyclo-propyl-7H-pyrrolo[2,3-d]pyrimidin-5-yl)-4-fluoroindolin-1-yl)-2-(4-((4-methylpiperazin-1-yl)methyl)-3-(tri-fluoromethyl)phenyl)-ethan-1-one]
< 150	Nc1ncnc2c1c(-c1ccc3c(c1F)CCN3C(=O)Cc1cccc(C(F)(F)F)n1)cn2C1CC1 [Compound I-20, 1-(5-(4-amino-7-cyclo-propyl-7H-pyrrolo[2,3-d]pyrimidin-5-yl)-4-fluoroindolin-1-yl)-2-(6-(trifluoromethyl)pyr-idin-2-yl)ethan-1-one]
< 150	CN1CCC(n2cc(-c3ccc4c(c3F)CCN4C(=O)Cc3cc(C(F)(F)F)ccc3F)c3c(N)ncnc32)CC1 [Compound I-28, 1-(5-(4-amino-7-(1-methylpiperidin-4-yl)-7H-pyrrolo[2,3-d]pyr-imidin-5-yl)-4-fluoro-indolin-1-yl)-2-(2-fluoro-5-(trifluorometh-yl)phenyl)ethan-1-one]
